The assay addresses human mGlu5a receptor (Homo sapiens (Human), UniProt P41594). Briefly: Intracellular Ca2+ mobilization assay (mGlu5 PAM). The class given is cell-based. Particulars: for EC50: HEK-293 cells stably transfected with human mGlu5a, L-glutamate added at EC20 after pre-incubation with test compound, read-out: EC50 (nM) mGlu5PAM; for Emax: maximal response in % of the maximal stimulatory effect obtained with saturating concentrations of L-glutamate, read-out: Eff. (%). The essentials: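 HEK-293 cells stably expressing human mGlu5a at low level were loaded with Fluo-4AM and preincubated 10–30 min at 37 °C with 11-point half-log compound dilutions. L-glutamate was then added at its daily-determined EC20 (typically around 80 μM). Peak fluorescence minus basal, normalized to maximal glutamate effect, was fitted to give EC50, Hill slope and maximal response.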

Chain of human mGlu5a receptor (P41594 other isoform, or with tags, fused parts or gaps): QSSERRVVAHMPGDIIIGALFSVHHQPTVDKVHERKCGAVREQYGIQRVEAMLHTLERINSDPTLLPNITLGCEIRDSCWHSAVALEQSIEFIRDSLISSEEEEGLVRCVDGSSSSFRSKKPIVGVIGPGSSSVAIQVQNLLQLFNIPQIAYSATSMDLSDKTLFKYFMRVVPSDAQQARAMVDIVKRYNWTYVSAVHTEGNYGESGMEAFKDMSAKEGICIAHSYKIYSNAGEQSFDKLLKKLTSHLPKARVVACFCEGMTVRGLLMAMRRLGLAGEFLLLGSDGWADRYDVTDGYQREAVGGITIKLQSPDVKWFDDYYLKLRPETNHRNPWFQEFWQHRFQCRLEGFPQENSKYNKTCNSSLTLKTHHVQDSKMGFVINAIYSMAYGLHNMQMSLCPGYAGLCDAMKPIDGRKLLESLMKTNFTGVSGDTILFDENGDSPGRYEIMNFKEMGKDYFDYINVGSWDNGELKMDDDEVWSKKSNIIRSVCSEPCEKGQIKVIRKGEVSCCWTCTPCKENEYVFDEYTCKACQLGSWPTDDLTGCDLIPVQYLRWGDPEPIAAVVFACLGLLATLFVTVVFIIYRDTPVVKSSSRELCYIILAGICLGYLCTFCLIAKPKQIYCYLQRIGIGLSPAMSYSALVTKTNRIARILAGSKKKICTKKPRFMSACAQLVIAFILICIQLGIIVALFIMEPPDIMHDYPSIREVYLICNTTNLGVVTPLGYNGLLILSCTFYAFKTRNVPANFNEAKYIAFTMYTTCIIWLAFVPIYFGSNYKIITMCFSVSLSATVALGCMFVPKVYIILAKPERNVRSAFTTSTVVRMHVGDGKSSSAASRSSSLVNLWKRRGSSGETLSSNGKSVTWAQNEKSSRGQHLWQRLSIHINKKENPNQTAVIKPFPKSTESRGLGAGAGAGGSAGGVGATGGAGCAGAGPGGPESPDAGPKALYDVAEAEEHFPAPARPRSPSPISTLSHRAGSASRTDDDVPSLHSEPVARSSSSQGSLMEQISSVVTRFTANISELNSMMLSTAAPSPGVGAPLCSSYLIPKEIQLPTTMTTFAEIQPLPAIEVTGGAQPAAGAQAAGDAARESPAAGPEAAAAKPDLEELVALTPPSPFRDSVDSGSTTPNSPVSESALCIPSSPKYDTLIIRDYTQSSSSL

For the molecule `O=C1CC2(CCCC2)CN1c1ncc(C#Cc2ccccc2)cn1` [Example 117, 2-(5-Phenylethynyl-pyrimidin-2-yl)-2-aza-spiro[4.4]nonan-3-one], the EC50 is 44 nM and the Emax was 84%.
Consider `CC1(C)CC(=O)N(c2ncc(C#Cc3cccc(F)c3)cn2)C1` [Example 118, 1-[5-(3-Fluoro-phenylethynyl)-pyrimidin-2-yl]-4,4-dimethyl-pyrrolidin-2-one], for which the EC50 worked out at 13 nM and the Emax amounted to 78%.
With `CC1(C)CC(=O)N(c2ncc(C#Cc3cccc(Cl)c3)cn2)C1` [Example 119, 1-[5-(3-Chloro-phenylethynyl)-pyrimidin-2-yl]-4,4-dimethyl-pyrrolidin-2-one], the EC50 came to 11 nM and the Emax was determined as 26%.
In the case of `CC1(C)CC(=O)N(c2ncc(C#Cc3ccc(F)cc3)cn2)C1` [Example 120, 1-[5-(4-Fluoro-phenylethynyl)-pyrimidin-2-yl]-4,4-dimethyl-pyrrolidin-2-one], the EC50 was determined as 92 nM and the Emax was 81%.
Take `CC1(C)CC(=O)N(c2ncc(C#Cc3cc(F)ccc3F)cn2)C1` [Example 121, 1-[5-(2,5-Difluoro-phenylethynyl)-pyrimidin-2-yl]-4,4-dimethyl-pyrrolidin-2-one]: the EC50 is 41 nM and the Emax came to 70%.
Take `CN1C(=O)N(c2ncc(C#Cc3ccccc3)cn2)CC1(C)C` [Example 122, 3,4,4-Trimethyl-1-(5-phenylethynyl-pyrimidin-2-yl)-imidazolidin-2-one]: the EC50 was 11 nM and the Emax is 36%.
With `CN1C(=O)N(c2ncc(C#Cc3cccc(F)c3)cn2)CC1(C)C` [Example 123, 1-[5-(3-Fluoro-phenylethynyl)-pyrimidin-2-yl]-3,4,4-trimethyl-imidazolidin-2-one], the EC50 came out at 18 nM and the Emax was found to be 30%.
As for `CN1C(=O)N(c2ncc(C#Cc3cc(F)ccc3F)cn2)CC1(C)C` [Example 124, 1-[5-(2,5-Difluoro-phenylethynyl)-pyrimidin-2-yl]-3,4,4-trimethyl-imidazolidin-2-one], the EC50 was 7 nM and the Emax amounted to 43%.
As to `CN1C(=O)N(c2ncc(C#Cc3ccc(F)cc3)cn2)CC1(C)C` [Example 125, 1-[5-(4-Fluoro-phenylethynyl)-pyrimidin-2-yl]-3,4,4-trimethyl-imidazolidin-2-one], the concentration giving a half-maximal response (EC50) is 13 nM and the Emax is 44%.
The corresponding values for `CN1C(=O)N(c2ncc(C#Cc3ccc(F)c(F)c3)cn2)CC1(C)C` [Example 126, 1-[5-(3,4-Difluoro-phenylethynyl)-pyrimidin-2-yl]-3,4,4-trimethyl-imidazolidin-2-one] are 23 nM and 36%.
The corresponding values for `CC1(C)CCN(c2ncc(C#Cc3ccccc3)cn2)C(=O)C1` [Example 134, 4,4-Dimethyl-1-(5-phenylethynyl-pyrimidin-2-yl)-piperidin-2-one] are 42 nM and 90%.
The corresponding values for `CC1(C)CCN(c2ncc(C#Cc3cccc(F)c3)cn2)C(=O)C1` [Example 135, 1-[5-(3-Fluoro-phenylethynyl)-pyrimidin-2-yl]-4,4-dimethyl-piperidin-2-one] are 35 nM and 47%.
Turning to `CC1(C)CCN(c2ncc(C#Cc3cc(F)ccc3F)cn2)C(=O)C1` [Example 136, 1-[5-(2,5-Difluoro-phenylethynyl)-pyrimidin-2-yl]-4,4-dimethyl-piperidin-2-one], the EC50 is 31 nM and the Emax stood at 49%.
Take `CN1C(=O)N(c2ncc(C#Cc3ccccc3)cn2)CCC1(C)C` [Example 137, 3,4,4-Trimethyl-5′-phenylethynyl-3,4,5,6-tetrahydro-[1,2′]bipyrimidinyl-2-one]: the EC50 was found to be 66 nM and the Emax amounted to 74%.
The corresponding values for `CN1C(=O)N(c2ncc(C#Cc3cccc(F)c3)cn2)CCC1(C)C` [Example 138, 5′-(3-Fluoro-phenylethynyl)-3,4,4-trimethyl-3,4,5,6-tetrahydro-[1,2′]bipyrimidinyl-2-one] are 60 nM and 67%.
The corresponding values for `CN1C(=O)N(c2ncc(C#Cc3cc(F)ccc3F)cn2)CCC1(C)C` [Example 139, 5′-(2,5-Difluoro-phenylethynyl)-3,4,4-trimethyl-3,4,5,6-tetrahydro-[1,2′]bipyrimidinyl-2-one] are 57 nM and 54%.
The corresponding values for `CC(C)N1C(=O)N(c2ncc(C#Cc3ccccc3)cn2)CC1(C)C` [Example 140, 3-Isopropyl-4,4-dimethyl-1-(5-phenylethynyl-pyrimidin-2-yl)-imidazolidin-2-one] are 28 nM and 58%.
Consider `CC(C)N1C(=O)N(c2ncc(C#Cc3cccc(F)c3)cn2)CC1(C)C` [Example 141, 1-[5-(3-Fluoro-phenylethynyl)-pyrimidin-2-yl]-3-isopropyl-4,4-dimethyl-imidazolidin-2-one], for which the EC50 stood at 28 nM and the Emax amounted to 39%.
The corresponding values for `CC(C)N1C(=O)N(c2ncc(C#Cc3ccc(F)cc3)cn2)CC1(C)C` [Example 142, 1-[5-(4-Fluoro-phenylethynyl)-pyrimidin-2-yl]-3-isopropyl-4,4-dimethyl-imidazolidin-2-one] are 78 nM and 74%.
The corresponding values for `CCN1C(=O)N(c2ncc(C#Cc3ccc(F)cc3)cn2)CC1(C)C` [Example 143, 1-[5-(4-Fluoro-phenylethynyl)-pyrimidin-2-yl]-3-ethyl-4,4-dimethyl-imidazolidin-2-one] are 47 nM and 68%.
The corresponding values for `CCN1C(=O)N(c2ncc(C#Cc3cccc(F)c3)cn2)CC1(C)C` [Example 144, 1-[5-(3-Fluoro-phenylethynyl)-pyrimidin-2-yl]-3-ethyl-4,4-dimethyl-imidazolidin-2-one] are 31 nM and 58%.
On to `CN1C(=O)N(c2ncc(C#Cc3ccccc3)cn2)CC12CC2` [Example 147, 4-Methyl-6-(5-phenylethynyl-pyrimidin-2-yl)-4,6-diaza-spiro[2.4]heptan-5-one], for which the EC50 was 25 nM and the Emax turned out to be 36%.
The corresponding values for `CC1(C)CC(=O)N(c2ccc(C#Cc3ccccc3)nn2)C1` [Example 150, 4,4-Dimethyl-1-(6-(phenylethynyl)pyridazin-3-yl)pyrrolidin-2-one] are 21 nM and 113%.
For the molecule `CC1(C)CCN(c2ccc(C#Cc3ccccc3)nn2)C(=O)C1` [Example 151, 4,4-Dimethyl-1-(6-(phenylethynyl)pyridazin-3-yl)piperidin-2-one], the EC50 was 19 nM and the Emax amounted to 130%.
With `CC1(C)CN(c2ccc(C#Cc3ccccc3)nn2)C(=O)O1` [Example 152, 5,5-Dimethyl-3-(6-(phenylethynyl)pyridazin-3-yl)oxazolidin-2-one], the EC50 worked out at 15 nM and the Emax is 112%.
Consider `CC1(C)CCN(c2ccc(C#Cc3ccccc3)nn2)C(=O)O1` [Example 153, 6,6-Dimethyl-3-(6-(phenylethynyl)pyridazin-3-yl)-1,3-oxazinan-2-one], for which the EC50 came to 14 nM and the Emax is 86%.
As for `Cc1cccc(C#Cc2ccc(N3CC(C)(C)N(C)C3=O)nn2)c1` [Example 154, 3,4,4-Trimethyl-1-(6-(m-tolylethynyl)pyridazin-3-yl)imidazolidin-2-one], the EC50 worked out at 61 nM and the Emax was 108%.
With `CN1C(=O)N(c2ccc(C#Cc3cccc(Cl)c3)nn2)CC1(C)C` [Example 155, 1-(6-((3-Chlorophenyl)ethynyl)pyridazin-3-yl)-3,4,4-trimethylimidazolidin-2-one], the EC50 was 73 nM and the Emax was determined as 95%.
`CN1C(=O)N(c2cnc(C#Cc3ccccc3)cn2)CC1(C)C` [Example 156, 3,4,4-Trimethyl-1-(5-(phenylethynyl)pyrazin-2-yl)imidazolidin-2-one]: the EC50 was 24 nM and the Emax was determined as 58%.
The corresponding values for `CN1C(=O)N(c2cnc(C#Cc3cccnc3)cn2)CC1(C)C` [Example 157, 3,4,4-Trimethyl-1-(5-(pyridin-3-ylethynyl)pyrazin-2-yl)imidazolidin-2-one] are 206 nM and 34%.
The corresponding values for `CN1C(=O)N(c2cnc(C#Cc3cccc(F)c3)cn2)CC1(C)C` [Example 158, 1-(5-((3-Fluorophenyl)ethynyl)pyrazin-2-yl)-3,4,4-trimethylimidazolidin-2-one] are 46 nM and 36%.
With `CN1C(=O)N(c2cnc(C#Cc3ccc(F)cc3)cn2)CC1(C)C` [Example 159, 1-(5-((4-Fluorophenyl)ethynyl)pyrazin-2-yl)-3,4,4-trimethylimidazolidin-2-one], the EC50 is 49 nM and the Emax was 49%.
The corresponding values for `CC1(C)CC(=O)N(c2cnc(C#Cc3cccc(F)c3)cn2)C1` [Example 160] are 29 nM and 39%.
The corresponding values for `CC1(C)CCN(c2cnc(C#Cc3cccc(F)c3)cn2)C(=O)C1` [Example 161, 1-(5-((3-Fluorophenyl)ethynyl)pyrazin-2-yl)-4,4-dimethylpiperidin-2-one] are 29 nM and 68%.
For the molecule `CC1(C)CCN(c2cnc(C#Cc3cccnc3)cn2)C(=O)C1` [Example 162, 4,4-Dimethyl-1-(5-(pyridin-3-ylethynyl)pyrazin-2-yl)piperidin-2-one], the EC50 was 681 nM and the Emax was found to be 76%.
The corresponding values for `CC1(C)CCN(c2cnc(C#Cc3ccccc3)cn2)C(=O)C1` [Example 163, 4,4-Dimethyl-1-(5-(phenylethynyl)pyrazin-2-yl)piperidin-2-one] are 69 nM and 74%.

The record behind these values is patent US9315498B2, “Arlethynyl derivatives” (Hoffmann-La Roche Inc., priority 2010, dated 2016).
